We go through 2 compounds from patent US9216973B2, “Insecticidal compounds” (Syngenta Participations AG, priority 2008, dated 2015).

The melting point is the temperature, or range, at which the solid turns liquid. `Cc1c(C(=O)NC2CSC2)cnn1C1=NOC(c2cc(Cl)cc(Cl)c2)(C(F)(F)F)C1` (centres unmarked) [B2]: the melting point turned out to be 77 °C.
The result for `O=C(NC1CSC1)c1cnn(C2=NOC(c3cc(Cl)cc(Cl)c3)(C(F)(F)F)C2)c1` (centres unmarked) [B4] reads 85 to 87 °C.
